Measurements published in publication PMC10850145, “Hormonal steroids induce multidrug resistance and stress response genes in Neisseria gonorrhoeae by binding to MtrR” (Nature Communications, 2024).
Where “and” joins values, the source holds several entries; their conditions need not be identical. Equal values may be shown once. Read-outs that look alike come from different tables or passages of the source.

Test system: mtrC-lacZ expression
Assay type: cell-based, Neisseria gonorrhoeae
Conditions: for mtrC-lacZ β-galactosidase activity, Mean: left block of sheet (mtrCDE); for β-galactosidase activity, Mean: second (right) untitled block of sheet Figure S10 (mtrC); for β-galactosidase activity, mtrC-lacZ, Mean: strain ΔmtrR + mtrR WT (pGCC3-mtrR); for Plate-6 (Testosterone) Miller units, Mean: upper four plate rows; for Miller units, Mean: right block Plate-4
[1] = strain ΔmtrR + mtrR R176E, 50 µM hormone
[2] = strain ΔmtrR + mtrR WT, 25 µM hormone
[3] = strain ΔmtrR + mtrR WT, 50 µM hormone

C[C@]12CC[C@H]3[C@@H](CCC4=CC(=O)CC[C@@]43C)[C@@H]1CC[C@@H]2O [Testosterone, testosterone]
mtrC-lacZ β-galactosidase activity, Mean [1]: 224 Miller units
β-galactosidase activity, Mean [1]: 83 Miller units
mtrC-lacZ β-galactosidase activity, Mean (strain ΔmtrR + mtrR R176E, 100 µM hormone): 238 Miller units
β-galactosidase activity, mtrC-lacZ, Mean (hormone 6.25 µM): 125 Miller units
β-galactosidase activity, mtrC-lacZ, Mean (hormone 12.5 µM): 130 Miller units
β-galactosidase activity, mtrC-lacZ, Mean (hormone 25 µM): 133 Miller units
β-galactosidase activity, mtrC-lacZ, Mean (hormone 50 µM): 152 Miller units
mtrC-lacZ β-galactosidase activity, Mean (strain ΔmtrR + mtrR WT, 1 µM hormone): 107 Miller units
β-galactosidase activity, Mean (strain ΔmtrR + mtrR WT, 6.25 µM hormone): 45 Miller units
mtrC-lacZ β-galactosidase activity, Mean (strain ΔmtrR + mtrR WT, 10 µM hormone): 177 Miller units
β-galactosidase activity, Mean (strain ΔmtrR + mtrR WT, 12.5 µM hormone): 50 Miller units
mtrC-lacZ β-galactosidase activity, Mean [2]: 181 Miller units
β-galactosidase activity, Mean [2]: 70 Miller units
mtrC-lacZ β-galactosidase activity, Mean [3]: 213 Miller units
β-galactosidase activity, Mean [3]: 74 Miller units
mtrC-lacZ β-galactosidase activity, Mean (strain ΔmtrR + mtrR WT, 100 µM hormone): 227 Miller units
mtrC-lacZ β-galactosidase activity, Mean (strain ΔmtrR, 1 µM hormone): 334 Miller units
β-galactosidase activity, Mean (strain ΔmtrR, 6.25 µM hormone): 146 Miller units
mtrC-lacZ β-galactosidase activity, Mean (strain ΔmtrR, 10 µM hormone): 358 Miller units
β-galactosidase activity, Mean (strain ΔmtrR, 12.5 µM hormone): 153 Miller units
β-galactosidase activity, Mean (strain ΔmtrR, 25 µM hormone): 155 Miller units
mtrC-lacZ β-galactosidase activity, Mean (strain ΔmtrR, 50 µM hormone): 284 Miller units
β-galactosidase activity, Mean (strain ΔmtrR, 50 µM hormone): 141 Miller units
mtrC-lacZ β-galactosidase activity, Mean (strain ΔmtrR, 100 µM hormone): 369 Miller units
Plate-6 (Testosterone) Miller units, Mean (testosterone 6.25 µM, plate column 3): 69 Miller units
Plate-6 (Testosterone) Miller units, Mean (testosterone 6.25 µM, plate column 9 (second strain set, columns 7-12)): 96 Miller units
Plate-6 (Testosterone) Miller units, Mean (testosterone 12.5 µM, plate column 4): 81 Miller units
Plate-6 (Testosterone) Miller units, Mean (testosterone 12.5 µM, plate column 10 (second strain set, columns 7-12)): 102 Miller units
Plate-6 (Testosterone) Miller units, Mean (testosterone 25 µM, plate column 5): 98 Miller units
Plate-6 (Testosterone) Miller units, Mean (testosterone 25 µM, plate column 11 (second strain set, columns 7-12)): 112 Miller units
Plate-6 (Testosterone) Miller units, Mean (testosterone 50 µM, plate column 6): 117 Miller units
Plate-6 (Testosterone) Miller units, Mean (testosterone 50 µM, plate column 12 (second strain set, columns 7-12)): 119 Miller units
Miller units, Mean (third strain (lower plate half, wells 1-6; not named), testosterone 6.25 µM): 45 Miller units
Miller units, Mean (third strain (lower plate half, wells 1-6; not named), testosterone 12.5 µM): 50 Miller units
Miller units, Mean (third strain (lower plate half, wells 1-6; not named), testosterone 25 µM): 70 Miller units
Miller units, Mean (third strain (lower plate half, wells 1-6; not named), testosterone 50 µM): 74 Miller units
Miller units, Mean (ΔmtrR (by plate layout), testosterone 6.25 µM): 146 Miller units
Miller units, Mean (ΔmtrR (by plate layout), testosterone 12.5 µM): 153 Miller units
Miller units, Mean (ΔmtrR (by plate layout), testosterone 25 µM): 155 Miller units
Miller units, Mean (ΔmtrR (by plate layout), testosterone 50 µM): 141 Miller units
β-galactosidase activity, Miller units (single replicate) (ΔmtrR + mtrR WT in trans, 1 µM, first data set (c15-c36)): 95 Miller units and 106 Miller units
β-galactosidase activity, Miller units (single replicate) (ΔmtrR + mtrR WT in trans, 6.25 µM, second data set (c53-c74)): 36 Miller units and 39 Miller units and 65 Miller units and 38 Miller units
β-galactosidase activity, Miller units (single replicate) (ΔmtrR + mtrR WT in trans, 10 µM, first data set (c15-c36)): 167 Miller units and 179 Miller units
β-galactosidase activity, Miller units (single replicate) (ΔmtrR + mtrR WT in trans, 12.5 µM, second data set (c53-c74)): 52 Miller units and 40 Miller units and 64 Miller units and 45 Miller units
β-galactosidase activity, Miller units (single replicate) (ΔmtrR + mtrR WT in trans, 25 µM, first data set (c15-c36)): 181 Miller units and 185 Miller units
β-galactosidase activity, Miller units (single replicate) (ΔmtrR + mtrR WT in trans, 25 µM, second data set (c53-c74)): 72 Miller units and 60 Miller units and 77 Miller units
β-galactosidase activity, Miller units (single replicate) (ΔmtrR + mtrR WT in trans, 50 µM, first data set (c15-c36)): 185 Miller units and 193 Miller units
β-galactosidase activity, Miller units (single replicate) (ΔmtrR + mtrR WT in trans, 50 µM, second data set (c53-c74)): 89 Miller units and 62 Miller units and 81 Miller units and 65 Miller units
β-galactosidase activity, Miller units (single replicate) (ΔmtrR + mtrR WT in trans, 100 µM, first data set (c15-c36)): 195 Miller units and 175 Miller units
β-galactosidase activity, Miller units (single replicate) (ΔmtrR, 1 µM, first data set (c15-c36)): 360 Miller units and 326 Miller units and 318 Miller units
β-galactosidase activity, Miller units (single replicate) (ΔmtrR, 6.25 µM, second data set (c53-c74)): 213 Miller units and 147 Miller units and 123 Miller units and 100 Miller units
β-galactosidase activity, Miller units (single replicate) (ΔmtrR, 10 µM, first data set (c15-c36)): 393 Miller units and 347 Miller units and 355 Miller units and 336 Miller units
β-galactosidase activity, Miller units (single replicate) (ΔmtrR, 12.5 µM, second data set (c53-c74)): 202 Miller units and 175 Miller units and 120 Miller units and 117 Miller units
β-galactosidase activity, Miller units (single replicate) (ΔmtrR, 25 µM, first data set (c15-c36)): 325 Miller units and 289 Miller units and 330 Miller units and 304 Miller units
β-galactosidase activity, Miller units (single replicate) (ΔmtrR, 25 µM, second data set (c53-c74)): 194 Miller units and 180 Miller units and 119 Miller units and 125 Miller units
β-galactosidase activity, Miller units (single replicate) (ΔmtrR, 50 µM, first data set (c15-c36)): 298 Miller units and 287 Miller units and 282 Miller units and 269 Miller units
β-galactosidase activity, Miller units (single replicate) (ΔmtrR, 50 µM, second data set (c53-c74)): 175 Miller units and 157 Miller units and 99 Miller units
β-galactosidase activity, Miller units (single replicate) (ΔmtrR, 100 µM, first data set (c15-c36)): 429 Miller units and 358 Miller units and 309 Miller units and 379 Miller units
